Values after ≈ are worked out from the molar mass of the structure shown.
Assay: Solubility of aripiprazole in n-propanol
Type: physicochemical
Conditions: organic solvent or mixture; solvent n-propanol (n-PrOH)
Method: The solubility of aripiprazole in n-PrOH is low, only about 7 mg/ml. Therefore, a highly saturated solution could be produced with a very low solution concentration. At such low concentrations, the number of nucleation sites within the nozzle is low enough to prevent substantial blockages. When processing n-PrOH solutions at […], pressure fluctuations were reduced to a more satisfactory level of <35 bar. […] Water was again incorporated into the solution, in an attempt to produce the monohydrate. […] The sample was, however, anhydrous.

## O=C1CCc2ccc(OCCCCN3CCN(c4cccc(Cl)c4Cl)CC3)cc2N1 [aripiprazole, 7-(4-[4-(2,3-dichloropheny)-1-piperazinyl]-butoxy)-3,4-dihydro carbostyril]
  solubility: ~7000 µg/mL (≈ 15.6 mM)

— patent US7507823B2, “Process of making aripiprazole particles” (Bristol-Myers Squibb Company, priority 2004, dated 2009)
